Values after ≈ are worked out from the molar mass of the structure shown.
Legend:
[1] = target: T1, MDR1 (P-glycoprotein, ABCB1) (Homo sapiens, UniProt P08183); assay: in vitro
Description: Inhibition of human recombinant MDR1 expressed in mouse L5178Y cells assessed as inhibition of rhodamine-123 efflux at 10^-4 M preincubated for 10 mins measured after 20 mins by FACS analysis

[2] = target: T2, Quinolone resistance protein NorA (Staphylococcus aureus) (UniProt P0A0J7); conditions: SA-1199B, at 50 µM
T2 sequence (whole entry): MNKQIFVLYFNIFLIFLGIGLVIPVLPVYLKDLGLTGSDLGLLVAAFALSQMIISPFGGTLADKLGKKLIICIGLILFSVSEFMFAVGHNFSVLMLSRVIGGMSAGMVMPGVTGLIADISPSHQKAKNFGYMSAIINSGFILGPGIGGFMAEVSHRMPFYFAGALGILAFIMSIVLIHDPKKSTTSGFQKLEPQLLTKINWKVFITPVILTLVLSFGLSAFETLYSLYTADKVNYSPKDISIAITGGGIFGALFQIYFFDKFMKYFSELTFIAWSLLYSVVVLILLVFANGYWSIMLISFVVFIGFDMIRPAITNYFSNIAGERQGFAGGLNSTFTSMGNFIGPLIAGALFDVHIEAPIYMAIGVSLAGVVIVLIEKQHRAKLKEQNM
Description: Inhibition of norA-mediated ethidium bromide efflux in Staphylococcus aureus SA-1199B harboring grlA A116E mutant at 50 uM after 5 mins by fluorometric analysis

Staphylococcus aureus = assay: microbe, parasite or virus in culture; type: functional; conditions: SA-1199B
Description: Antibacterial activity against Staphylococcus aureus SA-1199B harboring grlA A116E mutant by microdilution techniques

[3] = target: T1, MDR1 (P-glycoprotein, ABCB1); assay: Inhibition of human recombinant MDR1 expressed in mouse L5178Y cells assessed as inhibition of rhodamine-123 efflux at 10^-5 M preincubated for 10 mins measured after 20 mins by FACS analysis; type: cell-based; conditions: mouse L5178Y cells expressing human recombinant MDR1, probe rhodamine-123
[4] = mouse L5178Y cells expressing human recombinant MDR1, probe rhodamine-123

Row | SMILES | inhibition at 20 min, 100 µM [1, 4] [%] | inhibition [2] [%] | further results
1 | O=C1NC(=O)/C(=C/c2ccc(-c3cc(C(=O)O)ccc3Cl)o2)S1 | 2.6 |  | 
2 | C=C[C@H]1CN2CC[C@H]1C[C@@H]2[C@@H](O)c1ccnc2ccc(OC)cc12 |  | 31.5 | 
3 | N#Cc1c(SCc2ccc(Cl)nc2)nc2c(c1C(F)(F)F)CCCC2 | 20.4 |  | 
4 | CC(C)(C)c1ccc(C(=O)CCCN2CCC(OC(c3ccccc3)c3ccccc3)CC2)cc1 [EBASTINE] |  | 88.3 | MIC (Staphylococcus aureus): > 100 µg/mL
5 | CN(C)CCOc1ccc(-c2cc(=O)c3ccccc3n2C)cc1 | 3.2 |  | 
6 | CCC(C)N1C(=O)S/C(=C\c2ccc(N3CCCC3)o2)C1=O (configuration not stated) | 11.3 |  | 
7 | COc1cc(C2=Nc3ccccc3SC2)cc(OC)c1OC | 64.7 |  | 
8 | CC[C@H](C)N1C(=O)S/C(=C/c2ccc(-c3cc(C(=O)O)ccc3Cl)o2)C1=O |  |  | inhibition at 20 min, 10 µM [3]: 0.7%
9 | C=CCc1ccccc1OCC(O)CNC(C)C (configuration not stated) [ALPRENOLOL] | 5 |  | 
10 | C=C[C@H]1C[N@@]2CC[C@H]1C[C@@H]2[C@@H](O)c1ccnc2ccc(OC)cc12 [QUINIDINE] |  |  | inhibition at 20 min, 100 µM ([1]; l5178y): 21.1%
11 | CCN(CC)CCOc1ccc(-c2cc(=O)c3ccccc3n2C)cc1 |  |  | inhibition at 20 min, 10 µM [3]: 2.6%
12 | CCOC(=O)C1=C(COCCN)NC(C)=C(C(=O)OC)C1c1ccccc1Cl (configuration not stated) [AMLODIPINE] |  | 60.6 | inhibition at 20 min, 10 µM [3]: 52.8%
13 | O=C1Cc2cc(CCN3CCN(c4nsc5ccccc45)CC3)c(Cl)cc2N1 [ZIPRASIDONE] | 19 | 86.6 | MIC (Staphylococcus aureus): > 100 µg/mL
14 | O=C1CCc2ccc(OCCCCN3CCN(c4cccc(Cl)c4Cl)CC3)cc2N1 [ARIPIPRAZOLE] | 99 | 92.3 | MIC (Staphylococcus aureus): > 100 µg/mL
15 | CCN(CC)CCCN(c1ccccc1)C1Cc2ccccc2C1 [APRINDINE] | 16 | 51.6 | 
16 | COc1cccc(CNC(C)C(O)c2ccccc2)c1 (configuration not stated) | 2.1 |  | 
17 | COc1ccc(CCN2CCC(Nc3nc4ccccc4n3Cc3ccc(F)cc3)CC2)cc1 [ASTEMIZOLE] |  | 80.6 | inhibition at 20 min, 10 µM [3]: 12.8%; MIC (Staphylococcus aureus): 100 µg/mL (≈ 218 µM)

Row | SMILES | inhibition at 20 min, 100 µM [1, 4] [%] | inhibition [2] [%] | further results
18 | CCOC(=O)c1cn(C2CC2)c2cc(N3CCC4=C(C3)/C(=N/OC)C(C)CS4)c(N)cc2c1=O (configuration not stated) | 16.8 |  | 
19 | CCCOc1ccc(-c2cc(=O)c3ccccc3n2C)cc1 | 1.9 |  | 
20 | COc1ccc(C2=Nc3ccccc3SC2)cc1OC | 44.1 |  | 
21 | Cn1cccc1-c1nc2cc(NC(=O)c3ccccc3)ccc2[nH]1 | 1.6 |  | 
22 | CCC(C)N1C(=O)S/C(=C\c2ccc(-c3cc(C(=O)O)ccc3Cl)o2)C1=O (configuration not stated) |  |  | inhibition at 20 min, 10 µM [3]: 1.7%
23 | Cc1ccc(S(=O)(=O)Nc2ccc3nc(-c4cccn4C)[nH]c3c2)cc1 | 4.3 |  | 
24 | C[C@@H](NCc1cccc(OCc2ccccc2)c1)[C@@H](O)c1ccccc1 |  |  | inhibition at 20 min, 10 µM [3]: 7.8%
25 | CC[C@H]1CCc2nc(SCc3ccc(C(=O)O)cc3)c(C#N)c(C(F)(F)F)c2C1 |  |  | inhibition at 20 min, 10 µM [3]: 0.6%
26 | CN(C)C(=O)C(CCN1CCC(O)(c2ccc(Cl)cc2)CC1)(c1ccccc1)c1ccccc1 [LOPERAMIDE] |  | 77.7 | inhibition at 20 min, 10 µM [3]: 4.5%; MIC (Staphylococcus aureus): > 100 µg/mL
27 | CCOC(=O)c1cn(C2CC2)c2cc(N3CCC4=C(C3)/C(=N/O)C(C)CS4)c(N)cc2c1=O (configuration not stated) | 40.6 |  | 
28 | O=C1NCCN1CCN1CCC(c2cn(-c3ccc(F)cc3)c3ccc(Cl)cc23)CC1 [SERTINDOLE] | 74 | 81.8 | MIC (Staphylococcus aureus): 25 µg/mL (≈ 56.7 µM)
29 | Cc1ccc(S(=O)(=O)Nc2ccc3c(c2)ncn3-c2ccccc2)cc1 | 2.3 |  | 
30 | CCOc1cc(CC(=O)N[C@@H](CC(C)C)c2ccccc2N2CCCCC2)ccc1C(=O)O [REPAGLINIDE] | 35 | 14 | 
31 | N#Cc1c(C(F)(F)F)cc(Cc2ccccc2)nc1SCc1ccc(C(=O)O)cc1 | 2.6 |  | 
32 | Cc1ccc(S(=O)(=O)Nc2ccc3c(c2)nc(C)n3Cc2ccccc2)cc1 | 21.7 |  | 
33 | c1ccc(CCN(Cc2ccccc2)Cc2cccc(OCc3ccccc3)c2)cc1 | 2.2 |  | 

— ChEMBL document CHEMBL2046272, “Ligand Promiscuity between the Efflux Pumps Human P-Glycoprotein and S. aureus NorA” (ACS Med Chem Lett, 2012)
